Results on two molecules are retold here after PMC13313556, “Development and characterization of triazole-based WDR5 inhibitors for the treatment of glioblastoma” (JCI Insight, 2026).

For one test, the system named is L0 CSCs. The test can be described thus: Extreme limiting dilution assay (ELDA) in L0. In kind it is cell-based, human. The conditions noted are these: 14 days. The method, then:
L0 and DI318 CSCs were split with Accutase as single cells into NBMc. In total, 200 μL of CSCs were seeded into each well of a 96-well TC treated plate (n = 10 well per density) at 50, 25, 13, 6, 3, and 1.5 cells/well. […] The stem cell frequency was quantified and treatments were compared with DMSO as described by Hu and Smyth ([98]).

The target of the next test is WDR5 (Homo sapiens, UniProt P61964). Also on record: human WDR5 residues Ser22-Cys334 were codon optimized for E. coli; made in house; host or cells: E. coli T7 Express lysY/Iq (New England Biolabs), pET27 plasmid. The conditions noted are these: read-out: direct WDR5 Ki; cited from earlier work.

The structures appear in SMILES notation. pKi: −log10 of the molar value.

In the case of `COc1cc(Cn2nnc3c2CCc2c(-c4cn(C)nc4C(F)(F)F)cc(Cn4ccnc4C)cc2-3)cc(OC)c1` [C3TD078], the “L0 ELDA stem cell frequency (1 in N)” value was found to be 1.3 in the test on L0 CSCs (20 nM), 2.2 in the test with L0 CSCs (200 nM) and 2.1 in the test on L0 CSCs (2000 nM).

Usually pKi stands for −log10 of the Ki, conventionally taken in molar units. For the molecule `COc1cc(CN2CCc3c(cc(Cn4ccn(C)c4=N)cc3-c3ccc(F)cc3C)C2=O)cc(OC)c1` [C16, reference compound], the pKi at WDR5 is over 10.70.
